Laboratory results reported in US20230398130A1, “METHODS AND COMPOSITIONS FOR DIFFERENTIATING STEM CELLS” (Massachusetts Institute of Technology, priority 2020, published 2023).

Experiments:
ISC-enriched organoids [1] = assay: Primary screen, 384-well 2.5-D organoid differentiation (ENR+CD, 6 days): basal lysozyme secretion (LYZ.NS); type: cell-based, murine; details: primary screen; for Dose.FC.LYZ.NS: FC vs plate median; for Z.LYZ.NS: standard z score
Source text: (§1) High-throughput screening.

ISC-enriched organoids [2] = assay: Primary screen, 384-well 2.5-D organoid differentiation (ENR+CD, 6 days): carbachol-induced lysozyme secretion (LYZ.S); type: cell-based, murine; details: primary screen, FC vs plate median
Source text: as §1

ISC-enriched organoids [3] = assay: Primary screen, 384-well 2.5-D organoid differentiation (ENR+CD, 6 days, Target Selective Inhibitor Library, vs whole-plate median): ATP (CellTiter-Glo 3D, CTG); details: primary screen; for Dose.FC.CTG: FC vs plate median; for Z.CTG: standard z score

Row | SMILES | Dose.FC.LYZ.NS (ISC-enriched organoids [1]; Dose 0.08 uM) | Z.LYZ.NS (ISC-enriched organoids [1]; Dose 0.08 uM) | Dose.FC.LYZ.NS (ISC-enriched organoids [1]; Dose 0.40 uM) | Z.LYZ.NS (ISC-enriched organoids [1]; Dose 0.40 uM) | Dose.FC.LYZ.NS (ISC-enriched organoids [1]; Dose 2.00 uM) | Z.LYZ.NS (ISC-enriched organoids [1]; Dose 2.00 uM) | Dose.FC.LYZ.NS (ISC-enriched organoids [1]; Dose 10.00 uM) | Z.LYZ.NS (ISC-enriched organoids [1]; Dose 10.00 uM) | Dose.FC.LYZ.S (ISC-enriched organoids [2]; Dose 0.08 uM) | Dose.FC.LYZ.S (ISC-enriched organoids [2]; Dose 0.40 uM) | Dose.FC.LYZ.S (ISC-enriched organoids [2]; Dose 2.00 uM) | Dose.FC.LYZ.S (ISC-enriched organoids [2]; Dose 10.00 uM) | Dose.FC.CTG (ISC-enriched organoids [3]; Dose 0.08 uM) | Z.CTG (ISC-enriched organoids [3]; Dose 0.08 uM) | Dose.FC.CTG (ISC-enriched organoids [3]; Dose 0.40 uM) | Z.CTG (ISC-enriched organoids [3]; Dose 0.40 uM) | Dose.FC.CTG (ISC-enriched organoids [3]; Dose 2.00 uM) | Z.CTG (ISC-enriched organoids [3]; Dose 2.00 uM) | Dose.FC.CTG (ISC-enriched organoids [3]; Dose 10.00 uM) | Z.CTG (ISC-enriched organoids [3]; Dose 10.00 uM)
1 | NC(=O)c1cccc(-c2cc(Nc3ccc(OC(F)(F)F)cc3)ncn2)c1 [GNF-2] | 0.159 log 2 fold change | 1.386 | −0.024 log 2 fold change | −0.206 | 0.012 log 2 fold change | 0.102 | −0.033 log 2 fold change | −0.286 | 0.121 log 2 fold change | 0.001 log 2 fold change | 0.046 log 2 fold change | −0.015 log 2 fold change | 0.157 log 2 fold change | 0.376 | 0.090 log 2 fold change | 0.214 | 0.074 log 2 fold change | 0.176 | 0.100 log 2 fold change | 0.240
2 | CC1=C(C(=O)Nc2cc3cn[nH]c3cc2F)C(c2ccc(C(F)(F)F)cc2)CC(=O)N1 (centres unmarked) [GSK429286A] | 0.137 log 2 fold change | 1.197 | 0.128 log 2 fold change | 1.117 | 0.140 log 2 fold change | 1.222 | 0.059 log 2 fold change | 0.517 | 0.247 log 2 fold change | 0.283 log 2 fold change | 0.245 log 2 fold change | 0.099 log 2 fold change | 0.527 log 2 fold change | 1.260 | 0.545 log 2 fold change | 1.302 | 0.488 log 2 fold change | 1.166 | 0.370 log 2 fold change | 0.883
3 | C[C@@H](Oc1cc(-n2cnc3ccc(CN4CCN(C)CC4)cc32)sc1C(N)=O)c1ccccc1C(F)(F)F [GSK461364] | 0.078 log 2 fold change | 0.682 | −0.096 log 2 fold change | −0.834 | −0.246 log 2 fold change | −2.138 | −0.287 log 2 fold change | −2.498 | 0.112 log 2 fold change | −0.093 log 2 fold change | −0.352 log 2 fold change | −0.390 log 2 fold change | 0.160 log 2 fold change | 0.383 | −0.154 log 2 fold change | −0.368 | −0.628 log 2 fold change | −1.500 | −0.621 log 2 fold change | −1.484
4 | CCn1c(-c2nonc2N)nc2c(C#CC(C)(C)O)ncc(OC[C@H]3CCCNC3)c21 [GSK690693] | 0.045 log 2 fold change | 0.388 | 0.047 log 2 fold change | 0.409 | 0.122 log 2 fold change | 1.060 | −0.080 log 2 fold change | −0.698 | 0.019 log 2 fold change | 0.155 log 2 fold change | 0.124 log 2 fold change | −0.153 log 2 fold change | 0.129 log 2 fold change | 0.308 | 0.197 log 2 fold change | 0.470 | −0.027 log 2 fold change | −0.064 | −0.182 log 2 fold change | −0.434
